Laboratory results published in ChEMBL document CHEMBL3507680, “University of Dundee, Gates Library screen for HepG2 cell viability”.

Assay: Human HepG2 cell viability assay in 384 well format
Assay type: toxicity, cell-based
Design: dose 125 nL, time 70.5 hour; cytotoxicity at 70.5 h: concentration not given beside the values
Settings: HepG2 cells, read-out: Inhibition

| Compound | cytotoxicity at 70.5 h |
| --- | --- |
| CN1CCCC2(CCN(C(=O)Cc3cc4c(cc3Cl)OCCO4)C2)C1=O (stereo not drawn) | -2.31% |
| O=C(Cc1cnccn1)N1CCC(c2nccn2CC2CC2)CC1 | 31.6% |
| CC(c1ccco1)N(C)Cc1cc2cc3c(cc2[nH]c1=O)OCO3 (stereo not drawn) | -8.06% |
| O=C(Cc1cccc(O)c1)N1CCC2(CC1)c1ccccc1CC2O (stereo not drawn) | -11.7% |
| CC(O)CN1CCc2onc(C(c3ccccc3)c3ccccc3)c2C1 (stereo not drawn) | -10% |
| COCCS(=O)(=O)c1ncc(CN(C)CC(C)C)n1Cc1ccccc1 | -1.85% |
| O=C(Cn1c(=O)oc2ccccc21)N1Cc2cnn(CCO)c2C1 | -2.5% |
| Cc1oc(-c2cccc(F)c2)nc1CN1CCOCS1(=O)=O | -11.9% |
| Cc1cc(C)c2nc(CN3CCC(CN)C3)cc(O)c2c1 (stereo not drawn) | 6.13% |
| COCCCC1CCCCN1Cc1cn2cc(C)ccc2n1 (stereo not drawn) | -25.8% |
| Cc1ccccc1-n1cc(-c2ccnc(NC(CO)C(C)C)n2)cn1 (stereo not drawn) | -7.36% |
| CN1CCCN(c2nccc(-c3cc(C(=O)O)ccn3)n2)CC1 | 24.6% |
| Cc1cc(C)n(NC(=O)c2cccc3c2OCC3)c(=O)c1 | -6.18% |
| O=C(Nc1ccc(F)cc1)C1CNCCN1C(=O)CCO (stereo not drawn) | 8.54% |
| C=C1C(C)(C)[C@H]2CC[C@]1(C(=O)N1CCC(n3cc(CO)nn3)CC1)C2 | -7.81% |
| CCN(Cc1cccc(C(=O)Nc2cn(C)nn2)c1)[C@H]1COC[C@@H]1O | -5.22% |
| Cc1cc(C(F)(F)F)nc(CNC(=O)CCC2CCCCN2C)n1 (stereo not drawn) | 0.421% |
| CCCN(CC)c1cc(C2CCNCC2)nc(C)n1 | 26.5% |
| COc1ccc(-c2nccn2CC(O)CN2CCCC2)c(F)c1 (stereo not drawn) | 28.4% |
| Cn1ccnc1C1c2nc[nH]c2CCN1Cc1cccnc1 (stereo not drawn) | -5.94% |
| CCn1ccnc1CN(C)C(=O)Cn1ccc2ccccc2c1=O | -10.4% |

| Compound | cytotoxicity at 70.5 h |
| --- | --- |
| CN(Cc1n[nH]c2c1CCC2)C(=O)CCc1cc2n(n1)CCCNC2 | -12.8% |
| COc1ccc(C(O)CNC(=O)NCCc2csc(C)n2)cc1 (stereo not drawn) | -4.45% |
| Cc1ccc(-c2cc(CNC(=O)N3CCSCC3)on2)cc1 | -1.58% |
| Cc1nc(CNC(=O)NCC(O)c2ccc(F)cc2)cs1 (stereo not drawn) | -3.15% |
| Cc1csc(N2CCCN(C(=O)Cn3cncn3)CC2)n1 | -2.46% |
| Cc1csc(N2CCCN(C(=O)C(C)n3cncn3)CC2)n1 (stereo not drawn) | 1.24% |
| CCc1nc(C2CCCN(C(=O)c3ccccc3F)C2)no1 (stereo not drawn) | -2.67% |
| COCCN1CCN(CCCS(=O)(=O)N(C)C)CC1C (stereo not drawn) | -2.19% |
| CCS(=O)(=O)c1ccccc1N1CCC(N)CC1 | -3.9% |
| CC(=O)N1CCCN(C(=O)c2ccc(=O)n(C)c2)c2ccccc21 | -2.79% |
| O=C(c1nn(-c2ccccc2F)cc1O)N1CCCSCC1 | 2.69% |
| Cn1cc(C(=O)N2CCSc3ccccc32)ccc1=O | 3.72% |
| O=C(c1nn(-c2ccccc2F)cc1O)N1CCC2(CC1)OCCO2 | 13.2% |
| CCc1nc(CN(C)C2CCN(CC(=O)N3CCOCC3)C2)no1 (stereo not drawn) | -1.36% |
| CC(=O)N(Cc1noc(C2CC2)n1)C1CCN(CC2CCOCC2)C1 (stereo not drawn) | 22.1% |
| CN(Cc1noc(C2CC2)n1)C1CCN(CC(=O)N2CCOCC2)C1 (stereo not drawn) | -3.02% |
| CCc1nc(C2CCCN2C(=O)CCc2c(C)noc2Cl)no1 (stereo not drawn) | -3.77% |
| COc1ccc(NC(=O)CCn2nc(-c3cccs3)oc2=O)cc1OC | -5.48% |
| COc1cc(NC(=O)CCn2nc(-c3cccs3)oc2=O)cc(OC)c1 | -7.55% |
| N#Cc1cccc(NC(=O)CCn2nc(-c3cccs3)oc2=O)c1 | -11% |
| O=C(C1CCCN1Cc1nc(-c2ccco2)no1)N1CCSCC1 (stereo not drawn) | -5.08% |

| Compound | cytotoxicity at 70.5 h |
| --- | --- |
| COc1cc(C(=O)NS(=O)(=O)c2cccc(C#N)c2)cc(OC)c1Br | -6.73% |
| CC(C)c1ncncc1C(=O)N1CCN(Cc2ccccn2)CC1 | -7.1% |
| CC(C)c1ncncc1C(=O)N1CCN(Cc2ccsc2)CC1 | -10.1% |
| O=C1NCCN1C1CCN(Cc2coc(-c3ccc(F)cc3)n2)CC1 | -2.32% |
| CCc1nnc2n1CCN(Cc1csc(NC(C)=O)n1)C2 | -3.38% |
| COc1ncccc1CNC(=O)NC1CCCOc2ccccc21 (stereo not drawn) | -4.36% |
| CC(=O)Nc1nc(CN2CCn3c(C)nnc3C2)cs1 | -2.82% |
| CS(=O)(=O)NC(=O)c1nnn(-c2ccccc2)c1C1CC1 | -5.6% |
| O=C(N1CCCC(n2cncn2)C1)C1(c2ccc(Cl)cc2)CCC1 (stereo not drawn) | -7.28% |
| O=C(N1CCCC(n2cncn2)C1)C1(c2cccc(F)c2)CC1 (stereo not drawn) | -7.31% |
| O=C(N1CCCC(n2cncn2)C1)C1(c2ccccc2F)CCCC1 (stereo not drawn) | -5.6% |
| Cc1nc(CN(C)C2CCN(CCC(=O)N3CCOCC3)C2)no1 (stereo not drawn) | 15.9% |
| Cc1ccc(-c2nc(CN3CCC(N4CCNC4=O)CC3)co2)cc1 | -0.587% |
| O=C1NCCN1C1CCN(Cc2coc(-c3ccccc3)n2)CC1 | 20.6% |
| O=C(c1ccc2c(c1)CCCC2)N1CCCC(n2cncn2)C1 (stereo not drawn) | -4.56% |
| O=C(CCc1cccs1)N1CCCC1c1noc(C2CC2)n1 (stereo not drawn) | -6.44% |
| COc1cc(C(=O)N2CCCC(n3cncn3)C2)ccc1C (stereo not drawn) | -8.45% |
| CCc1nc(C2CCCN2C(=O)CCc2cscn2)no1 (stereo not drawn) | -4.03% |
| CCc1nc(C2CCCN2C(=O)Cc2cccs2)no1 (stereo not drawn) | -8.42% |
| c1ccc2oc(CCCN3CCCC(Cn4cncn4)C3)nc2c1 (stereo not drawn) | 19.8% |
| CCc1noc(CN2CCN(C(=O)c3ccccc3F)CC2)n1 | 29.8% |

| Compound | cytotoxicity at 70.5 h |
| --- | --- |
| CC(C)Cc1noc(CN2CCN(C(=O)c3ccccc3F)CC2)n1 | 13.7% |
| CC(C)c1noc(CN2CCN(C(=O)c3ccc(F)cc3)CC2)n1 | -3.61% |
| CC(NC(=O)Cc1cccs1)c1nnc2n1CCC2 (stereo not drawn) | -7.18% |
| CC(NC(=O)CCC(=O)c1cccs1)c1nnc2n1CCC2 (stereo not drawn) | -3.09% |
| Cc1cccc(CN2CCN(C(=O)c3cc(C4CC4)[nH]n3)CC2)c1 | -4.75% |
| O=C(c1cc(C2CC2)[nH]n1)N1CCN(Cc2ccncc2)CC1 | -11.9% |
| O=C(NCCNc1ncccn1)C1CCN(C(=O)NC2CC2)CC1 | -4.22% |
| CC(C)(C)OC(=O)N1CCC(C(=O)NCCNc2ncccn2)CC1 | -7.43% |
| c1csc(-c2noc(CN3CCc4cncnc4C3)n2)c1 | -8.24% |
| Cc1ccc(NC2CCN(C(=O)CCc3ccccc3)CC2)nn1 | -6.29% |
| O=C(CCc1ccco1)N1CCC(Nc2cccnn2)CC1 | 1.07% |
| Cc1ccc(NC2CCN(C(=O)CCc3cscn3)CC2)nn1 | 11.4% |
| Cc1ccc(NC2CCN(C(=O)CCNc3ncccn3)CC2)nn1 | -9.43% |
| CC1CN(CC(=O)Nc2ccncc2)CCN1c1nccs1 (stereo not drawn) | -2.52% |
| CN1CCOC(CN(C(=O)CCc2cnn(C)c2)c2nccs2)C1 (stereo not drawn) | -5.55% |
| O=C(NCCNc1ncccn1)C1CCN(C(=O)N2CCCC2)CC1 | -12.3% |
| CC(C)c1noc(CN2CCN(C(=O)c3cc(Cl)ccc3F)CC2)n1 | -8.7% |
| Cc1nn(C)c(C)c1NC(=O)CN1CCN(c2nccs2)C(C)C1 (stereo not drawn) | -6.35% |
| Cc1ccc(NC2CCN(C(=O)c3ccco3)CC2)nn1 | 11.9% |
| Cc1nn(-c2ccccc2)cc1C(=O)N1CCCC1c1cnn(C)c1 (stereo not drawn) | -6.59% |
